Measurements from article PMC7376718, “Flavonoids isolated from the South African weed Chromolaena odorata (Asteraceae) have pharmacological activity against uropathogens” (BMC Complementary Medicine and Therapies, 2020).
Converted amounts (≈) assume the structure as drawn. Read-outs that look alike come from different tables or passages of the source.

Experiments:
Caco2 cells = experiment: in vitro; settings: Caco2
Procedure: (§1) Different concentrations of the compounds ranging from 0.003 to 0.2 mg/mL were tested for cytotoxicity against three cell lines; Vero monkey kidney, C3A and Caco2. Vero cells were grown and maintained in MEM, supplemented with 0.1% gentamicin and 5% foetal calf serum, while Caco2 and C3A cells were grown and maintained in DMEM supplemented with 10% foetal calf serum, 1% non-essential amino acids and 1% penicillin-streptomycin. All cells were incubated in a 5% CO2 incubator at 37 °C. Doxorubicin chloride was used as positive control while 10% DMSO used in dissolving the test samples was used as the negative control. The 3-(4,5-dimethylthiazol)-2,5-diphenyl tetrazolium bromide (MTT) assay described by Mosmann with modification by McGaw et al. was used to determine the cytotoxicity of the test samples. The lethal concentration (LC50) value was calculated as the concentration of tested sample resulting in a 50% reduction of absorbance compared to untreated cells. Selectivity index (SI) values were calculated against the MIC using the formula: […]

S. aureus = test system: S. aureus; parameters: method as in earlier work; settings: ref [70] Teffo et al.; cited from earlier work
E. coli = test system: E. coli; parameters: method as in earlier work; settings: ref [70] Teffo et al.; cited from earlier work
in vitro [1] = experiment: in vitro
Procedure: as §1

in vitro [2] = experiment: in vitro; remark: listed apart in the source
Procedure: as §1

| Compound | Selectivity index (LC50/MIC) (Caco2 cells; A. fumigatus 48 h) | Selectivity index (LC50/MIC) (Caco2 cells; E. coli (1)) | Selectivity index (LC50/MIC) (Caco2 cells; E. coli (2)) | Selectivity index (LC50/MIC) (Caco2 cells; E. coli (3)) | Selectivity index (LC50/MIC) (Caco2 cells; K. pneumoniae) | Selectivity index (LC50/MIC) (Caco2 cells; S. aureus) | MIC / antibacterial activity (S. aureus) | MIC / antibacterial activity (E. coli) | CC50 (in vitro [1]) | CC50 (in vitro [2]) |
| --- | --- | --- | --- | --- | --- | --- | --- | --- | --- | --- |
| COc1ccc(-c2oc3cc(OC)cc(O)c3c(=O)c2OC)cc1 [Compound 3, 5-hydroxy-3,7,4′-trimethoxyflavone] | 5.129 | 2.52 | 0.636 | 0.636 | 1.272 | 9.938 | no activity was recorded | no activity was recorded | – | – |
| COc1ccc(C2CC(=O)c3c(OC)cc(OC)cc3O2)cc1 (racemic) [Compound 2, (±)-4′,5,7-trimethoxy flavanone] | – | – | – | – | – | – | – | – | > 200 µg/mL | 200 µg/mL (≈ 636 µM) |
